The source of these data is US20210322352A1, “COMPOSITION FOR IMPROVING ENDURANCE AND METHOD OF IMPROVING ENDURANCE USING THE SAME” (PHARMA FOODS INTERNATIONAL CO., LTD., priority 2020, published 2021).

The subject of one experiment is male ICR mice. As to the kind of experiment: Measurement of limit running time using a treadmill. As to conditions: GABA training group vs training group, diet with 0.5% GABA. The class given is in vivo, mouse. The procedure:
(§1) Specifically, 10 week-old male ICR mice are classified into the group in which normal food is freely ingested and training is not carried out (control group), the group in which a diet of normal food added with 0.5% of GABA (1.8 g for human) is freely ingested and training is not carried out (GABA group), the group in which normal food is freely ingested and training is carried out (training group) and the group in which a diet of normal food added with 0.5% of GABA (1.8 g for human) is freely ingested and training is carried out (GABA training group) (9 mice in each group). During the test period, the above classified mice freely ingested about 2.7 to about 5.0 g/day of normal food or GABA-comprising food per one individual. Regarding the training group and the GABA training group, running was forced for 60 minutes on a schedule of 3 times a week (interval of 1 day or 2 days). This training was continued until 3 days after termination of the below-mentioned third running test. In the training, a treadmill for small animals (Meiquest Ltd.) was used with the gradient of 0 degree to force running at 25 m/minute running speed. Since a mouse will run at the speed of about 6 to 24 m/minute without a load, the running speed of 25 m/minute is a little faster than normal, i.e., low to moderate intensity.

Experiment [1] deals with glycogen in a skeletal muscle (gastrocnemius muscle). As to the kind of experiment: Measurement of the amount of glycogen in a skeletal muscle. The class given is in vivo, mouse. As to conditions: 0.5% GABA diet. How it is done: as §1
A further experiment relates to insulin in plasma. Kind of experiment: Measurement of the amount of insulin in plasma. As to conditions: 0.5% GABA diet. It is filed as in vivo, mouse. The procedure: (§2) Specifically, 10 week-old male ICR mice are classified into the group in which normal food is freely ingested and training is not carried out (control group), the group in which a diet of normal food added with 0.5% of GABA (1.8 g for human) is freely ingested and training is not carried out (GABA group), the group in which normal food is freely ingested and training is carried out (training group) and the group in which a diet of normal food added with 0.5% of GABA (1.8 g for human) is freely ingested and training is carried out (GABA training group) (9 mice in each group).
During the test period, the above classified mice freely ingested about 2.7 to about 5.0 g/day of normal food or GABA-comprising food per one individual. Regarding the training group and the GABA training group, running was forced for 60 minutes on a schedule of 3 times a week (interval of 1 day or 2 days). This training was continued until 3 days after termination of the below-mentioned third running test. In the training, a treadmill for small animals (Meiquest Ltd.) was used with the gradient of 0 degree to force running at 25 m/minute running speed. Since a mouse will run at the speed of about 6 to 24 m/minute without a load, the running speed of 25 m/minute is a little faster than normal, i.e., low to moderate intensity.
2 days after termination of the final training, blood of a mouse in a group is collected to measure the amount of insulin in plasma. The measurement of the amount of insulin in plasma was carried out as described below using Lbis (registered trademark) Insulin-Mouse T (FUJIFILM Wako Shibayagi Corporation).
96 well plate for turning an antibody into a solid phase was prepared and washed 4 times with a cleaning liquid. 100 μL of biotin binding anti-insulin antibody was added thereto and stirred. […] 100 μL of 1M sulphuric acid solution was respectively added to stop the reaction, measure absorbance (OD 450 nm) and calculate the amount of insulin in plasma.

The next experiment concerns PGC-1α protein. Kind of experiment: Relative expression of PGC-1α protein in a skeletal muscle (western blotting). As to conditions: gastrocnemius muscle. It is filed as in vivo, mouse. The procedure:
as §1, with “[…] The amount of protein was quantified in accordance with the method of the TaKaRa BCA Protein Assay Kit (TAKARA BIO INC.) using bovine serum albumin as” for “Since”, “standard protein. […]” for “mouse will run at the speed of about 6 to 24 m/minute without a load, the running speed of 25 m/minute is a little faster than normal, i.e., low to moderate intensity.”
A general note: A western blot detects proteins with antibodies after separation by electrophoresis.

The next experiment relates to AMPK protein. Kind of experiment: Relative expression of AMPK protein in a skeletal muscle (western blotting). It is filed as in vivo, mouse. As to conditions: gastrocnemius muscle. How it is done:
as §1, with “[…] The amount of protein was quantified in accordance with the method of the TaKaRa BCA Protein Assay Kit (TAKARA BIO INC.) using bovine serum albumin as” for “Since”, “standard protein. […]” for “mouse will run at the speed of about 6 to 24 m/minute without a load, the running speed of 25 m/minute is a little faster than normal, i.e., low to moderate intensity.”

The next experiment relates to phosphorylated AKT/AKT. Kind of experiment: Phosphorylated AKT/AKT ratio in a skeletal muscle (western blotting). The class given is in vivo, mouse. As to conditions: gastrocnemius muscle. How it is done:
as §1

The next experiment has as its system mitochondrial DNA. As to the kind of experiment: Measurement of the amount of mitochondrial DNA in a skeletal muscle (real-time PCR). It is filed as in vivo, mouse. Conditions: GABA training group vs control group, GABA group and training group. How it is done: as §2
During the test period, the above classified mice freely ingested about 2.7 to about 5.0 g/day of normal food or GABA-comprising food per one individual. Regarding the training group and the GABA training group, running was forced for 60 minutes on a schedule of 3 times a week (interval of 1 day or 2 days). […]
20 to 50 mg of tissue sample was taken out to a 2 mL plastic tube to extract DNA in accordance with the genome DNA purification protocol described in NucleoSpin® DNARapidLyse (TAKARA BIO INC.). The amount of relative expression of the amount of mitochondria with respect to mouse nuclear DNA was quantified with the real-time PCR method using Thermal Cycler Dice® Real TimeSystem II (TAKARA BIO INC.) and set as mitochondrial DNA amount.
Background: Quantitative PCR measures a nucleic acid by following its amplification.

Another experiment concerns myosin 2a protein. As to the kind of experiment: Relative expression of myosin 2a in a skeletal muscle (soleus muscle), western blotting. The class given is in vivo, mouse. The procedure: as §2
During the test period, the above classified mice freely ingested about 2.7 to about 5.0 g/day of normal food or GABA-comprising food per one individual. Regarding the training group and the GABA training group, running was forced for 60 minutes on a schedule of 3 times a week (interval of 1 day or 2 days). This training was continued until 3 days after termination of the below-mentioned third running test. […]
Two days after termination of the final training, a skeletal muscle (soleus muscle) tissue of mouse was grinded with a biomasher on ice. […] The protein concentration of the protein extraction liquid was measured with a protein assay BCA kit and dilution was carried out with a RIPA buffer so that the protein concentration of the protein extraction liquid would be 4 mg/ml. […]

In a further experiment the test system is skeletal muscle. As to conditions: GABA in addition to whey protein vs whey protein alone; in training; J Clin Med Res. 2019; 11(6):428-434; cited from earlier work.

SMILES strings stand for the structures.

In the case of `NCCCC(=O)O` [GABA, γ-aminobutyric acid], the “amount of increase of running time due to a training (running time to exhaustion)” value is listed as “tendency to be enlarged” with male ICR mice (fourth week, P=0.14) and “significantly enlarged” in the experiment with male ICR mice (second week, P=0.04). Further, the “amount of glycogen in the gastrocnemius muscle” value in experiment [1] (GABA group vs control group, no training, P=0.09) is reported as “tendency of increase”; in [1] (GABA training group vs training group, P=0.04), “significantly increased”. The “amount of insulin in plasma” value was “decreased” in the experiment with insulin in plasma (GABA group vs control group, no training); “decreased” with insulin in plasma (GABA training group vs control group); “decreased” in the experiment on insulin in plasma (GABA training group vs training group, P=0.07). The “amount of expression of PGC-1α protein in a skeletal muscle” value is “significantly increased” with PGC-1α protein (GABA training group vs training group, P=0.01) and “tendency of increase” in the experiment on PGC-1α protein (vs control group (group not given, presumably GABA group)). Besides, the “amount of expression of AMPK protein” value in the experiment with AMPK protein (GABA training group vs control group, P=0.0008) is given as “increased”; in the experiment on AMPK protein (GABA training group vs training group), “increased more than the training group”. The “phosphorylated AKT/total AKT ratio in a skeletal muscle” value is recorded as “tendency to decrease” in the experiment with phosphorylated AKT/AKT (GABA group vs control group) and “significantly decreased” in the experiment with phosphorylated AKT/AKT (GABA training group vs training group, P=0.0001). In addition, the “mitochondrial DNA amount in a skeletal muscle” value with mitochondrial DNA is given as “tendency of increase”. Moreover, the “amount of expression of myosin 2a protein in a skeletal muscle (soleus muscle)” value is “tendency to increase” in the experiment with myosin 2a protein (GABA group vs control group and training group); “significantly increased” with myosin 2a protein (GABA training group vs the other 3 groups). Also, the “amount of fat removed muscle” value in the experiment on skeletal muscle was “increases”. The muscle hypertrophy entry in the experiment on skeletal muscle is “stimulates more muscle hypertrophy”.
